Test results as given in patent publication US10869931B2, “Polyethylene glycol-modified angiogenesis inhibitor HM-1 and application thereof” (NANJING ANJI BIOLOGICAL TECHNOLOGY CO.,LTD, priority 2016, dated 2020).
Marks after values point to notes of the source that are not given here. Where no end group is shown, it is not given here.

What was measured:
[1] = system: Pancreatic cancer tumor cells; experiment: MTT proliferation inhibition, pancreatic cancer cells; assay type: cell-based, human; design: concentration or dose not given beside the values; details: 48 h
Description: (§1) The activity of mPEG-HM-1 to inhibit the growth of various tumor cells was examined by MTT assay. The tumor cells were cultured to a concentration of 90% or more in a 37° C., 5% CO2 incubator and collected by trypsinization. The cells were resuspended in the culture medium and counted under a microscope to adjust the cell concentration to 2×10^4 cells/mL, the cell suspension was inoculated into a 96-well plate at 100 μL/well and incubated overnight at 37° C. in a 5% CO2 incubator. mPEG-HM-1 was diluted with the culture solution to each predetermined concentration. Docetaxel is diluted to the final concentration with the culture medium. After the cells were fully attached, each dilution was added to a 96-well plate (100 μL/well). The mPEG-HM-1 dilution was added as a drug-administered group, and docetaxel was added as a positive control group, and a culture solution without any drug was used as a negative control group. Incubate for 48 h at 37° C. in a 5% CO2 incubator. 5 mg/mL of MTT was added to a 96-well plate at 20 μL per well, and incubation was continued for 4 hours. The medium was aspirated, dissolved in 150 μL of DMSO per well, and gently mixed by shaking for 10 min. The absorbance was measured at a measurement wavelength of 570 nm and a reference wavelength of 630 nm using a microplate reader, and the rate of growth inhibition (proliferation inhibition, PI) was calculated. The formula is as follows: PI (%)=1−administration group/negative group
(§2) The test was repeated 3 times independently, and the results obtained by the test were expressed as mean±SD, and the test results are shown in Table 15 to Table 18.

[2] = system: Gastric cancer tumor cells; experiment: MTT proliferation inhibition, gastric cancer cells; assay type: cell-based, human; design: concentration or dose not given beside the values; details: 48 h
Description: as §1, §2

Melanoma tumor cells = experiment: MTT proliferation inhibition, melanoma cells; assay type: cell-based, human; design: concentration or dose not given beside the values; details: 48 h
Description: as §1, §2

[3] = system: Bladder Cancer tumor cells; experiment: MTT proliferation inhibition, bladder cancer cells; assay type: cell-based, human; design: concentration or dose not given beside the values; details: 48 h
Description: as §1, §2

[4] = system: adjuvant arthritis (AA) SD rats; experiment: Adjuvant arthritis (AA) rat model; assay type: in vivo; details: 80 mg/kg subcutaneous once every three days, AA SD rats; for Clinical score: maximum score 16
[5] = system: Kidney cancer tumor cells; experiment: MTT proliferation inhibition, kidney cancer cells; assay type: cell-based, human; design: concentration or dose not given beside the values; details: 48 h
Description: as §1, §2

Liver cancer tumor cells = experiment: MTT proliferation inhibition, liver cancer cells; assay type: cell-based, human; design: concentration or dose not given beside the values; details: 48 h
Description: as §1, §2

[6] = system: Breast cancer tumor cells; experiment: MTT proliferation inhibition, breast cancer cells; assay type: cell-based, human; design: concentration or dose not given beside the values; details: 48 h
Description: as §1, §2

[7] = system: Ovarian cancer tumor cells; experiment: MTT proliferation inhibition, ovarian cancer cells; assay type: cell-based, human; design: concentration or dose not given beside the values; details: 48 h
Description: as §1, §2

[8] = system: corneal neovascularization in BALB/c mice; experiment: Alkali-burn corneal neovascularization in BALB/c mice (CD31 microvessel density); assay type: in vivo, mouse; details: day 14 after alkali burn, intravitreal once a day for 1 week; for Inhibition rate: corneal microvessel density vs control; for MVD: microvessel density (CD31) of cornea
Description: (1) Preparation of corneal neovascularization model induced by alkali burn in BALB/c mice: mice were randomly grouped and labeled as mPEG-HM-1 experimental group and control group, 5 […] in each group, respectively, was given mPEG-HM-1 and saline by Intravitreal injection after alkali burn, once a day for 1 week. The inflammatory reaction and neovascularization of the cornea were observed under slit lamp microscope at 1 d, 7 d, and 14 d after alkali burn. On the 14th day after alkali burn, the corneal neovascularization was recorded under the slit lamp microscope in the anterior segment of the eye. All the mice were euthanized by cervical dislocation and the eyeballs were removed, washed with saline to rid of blood, and was fixed in 4% paraformaldehyde for 1.5 h, dehydrated in PBS containing 30% sucrose overnight, embedded in OCT frozen section embedding agent, stored in −80° C. refrigerator, frozen section 8 μm, and underwent immunocytochemical detection of CD31 expression. (2) Quantitative measurement of corneal tissue microvessel density: Microvessel density (MVD) is an indicator for evaluating angiogenesis. Vascular endothelial cells were labeled with anti-CD31 antibody by immunohistochemistry, and the number of microvessels per unit area was counted to measure the degree of neovascularization. Standards for counting microvessels: Microscopically, the endothelial cells or cell clusters that are clearly demarcated from adjacent tissues in the corneal tissue and stained brown or brown are counted in the neovascularization. The number of new blood vessels in the whole section was counted under a 10×20 microscope. After the corneal tissue was photographed, the entire corneal tissue area was calculated by image processing software Image J, and the neovascular density of the whole section was determined. The test was repeated 3 times independently. The results obtained by the test were expressed as mean±SD, and a statistical T test was performed. *P<0.05 was a significant difference, and **P<0.01 was a very significant difference.

[9] = system: Human Umbilical Vein Endothelial Cells (HUVEC); experiment: Transwell migration of HUVEC; assay type: cell-based; details: 24 h
Description: 10 mg/mL Matrigel was diluted 1:2 with HUVEC-specific medium, spread on a transwell chamber membrane, and air-dried at room temperature. HUVEC cells cultured in logarithmic growth phase were digested with trypsin digest, collected, washed twice with PBS, and resuspended in blank HUVECs-specific medium. The cells were counted under a microscope, and the cell concentration was adjusted to 1×10^5/mL. The test solutions of each group were prepared and diluted to 100 μL with a blank HUVECs-specific medium. The cells were seeded into a transwell chamber at 100 μL per well, and each set of test solution was added to the chamber. The cell culture was stimulated by adding 0.6 mL of endothelial cell culture medium containing 5% fetal bovine serum and 1% ECGS into a 24-well plate, and cultured at 5% CO2 for 24 hour at 37° c. Discard the culture medium in the well, fix it with 90% alcohol at room temperature for 30 minutes, 0.1% crystal violet for 10 min at room temperature, rinse with water, gently wipe off the unsprayed cells in the upper layer with a cotton swab, observe under microscope and select four fields to take pictures. Calculate migration inhibition (MI) according to the formula: […]
Ntest was the number of cell migration in the test group, and Ncontrol was the number of cell migration in the blank control group.
The test was repeated 3 times independently. The results obtained from the test were calculated as mean±SD, and a statistical T test was performed. *P<0.05 was a significant difference, and **P<0.01 was a very significant difference.

Hemangioma tumor cells = experiment: MTT proliferation inhibition, hemangioma cells; assay type: cell-based, human; design: concentration or dose not given beside the values; details: 48 h
Description: as §1, §2

Row | Substance | rate of growth inhibition [1] [%] | rate of growth inhibition [2] [%] | rate of growth inhibition (Melanoma tumor cells) [%] | rate of growth inhibition [3] [%] | Joint swelling [4] [mm] | Left and right paw swelling [4] [mm] | Clinical score [4] | rate of growth inhibition [5] [%] | rate of growth inhibition (Liver cancer tumor cells) [%] | rate of growth inhibition [6] [%] | rate of growth inhibition [7] [%] | Inhibition rate [8] [%] | MVD [8] | cell migration number (Mean ± SD) ([9]; 90 μg/mL) | inhibition rate of HUVEC migration ([9]; 90 μg/mL) [%*] | cell migration number (Mean ± SD) ([9]; 100 μg/mL) | inhibition rate of HUVEC migration ([9]; 100 μg/mL) [%] | cell migration number (Mean ± SD) ([9]; 110 μg/mL) | inhibition rate of HUVEC migration ([9]; 110 μg/mL) [%] | cell migration number (Mean ± SD) ([9]; 120 μg/mL) | other results
1 | mPEG-ALD40k-Arg-Gly-Ala-Asp-Arg-Ala-Gly-Gly-Gly-Gly-Arg-Gly-Asp ({mPEG‑ALD 40 kDa}-RGADRAGGGGRGD) [mPEG-ALD40k-HM-1] | 65.31 ± 19.81 | 70.66 ± 18.72 | 75.18 ± 21.75 | 43.22 ± 10.31 | 0.73 ± 0.17 | 3.80 ± 0.65 | 5.76 ± 1.03 | 68.46 ± 20.98 | 60.78 ± 10.88 | 60.17 ± 19.24 | 74.61 ± 20.09 | 46.11 | 35.96 ± 6.862** | 534.34 ± 56.62 | 48.07 | 510.47 ± 60.56 | 50.39 | 471.88 ± 46.27 | 54.14 | 565.31 ± 50.34 | inhibition rate of HUVEC migration ([9]; 120 μg/mL): 45.06%*; rate of growth inhibition (Hemangioma tumor cells): 50.67 ± 14.02%
2 | mPEG-bALD40k-Arg-Gly-Ala-Asp-Arg-Ala-Gly-Gly-Gly-Gly-Arg-Gly-Asp ({mPEG‑bALD 40 kDa}-RGADRAGGGGRGD) [mPEG-bALD40k-HM-1] | 62.85 ± 18.74 | 68.65 ± 16.93 | 73.10 ± 20.55 | 43.82 ± 10.31 | 0.74 ± 0.18 | 3.81 ± 0.62 | 5.78 ± 1.05 | 60.06 ± 18.88 | 58.72 ± 10.80 | 62.45 ± 19.04 | 72.66 ± 19.03 | 45.27 | 36.52 ± 6.537** | 652.01 ± 52.63 | 40.30 | 523.03 ± 60.52 | 52.11 | 545.63 ± 46.84 | 50.04 | 596.64 ± 50.46 | inhibition rate of HUVEC migration ([9]; 120 μg/mL): 45.37%*; rate of growth inhibition (Hemangioma tumor cells): 48.69 ± 12.72%
